Data from US6737383B1, “Herbicidal oxadiazolidines” (priority 1999, dated 2004).

Legend:
bedstraw = assay: Test B pre/postemergence bedstraw; assay type: in vivo, Galium aparine
Outline: (§1)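 Response is a visual 0-to-10 score relative to untreated plants, where 0 means no effect and 10 means complete control, taken twelve to sixteen days after application. Treatments went onto soil at planting and onto foliage of 1- to 4-leaf plants, using a surfactant-containing non-phytotoxic solvent.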

blackgrass = assay: Test B pre/postemergence blackgrass; assay type: in vivo, Alopecurus myosuroides
Outline: as §1

surinam grass = assay: Test B pre/postemergence surinam grass; assay type: in vivo, Brachiaria decumbens
Outline: as §1

cocklebur = assay: Test B pre/postemergence cocklebur; assay type: in vivo, Xanthium strumarium
Outline: as §1

corn = assay: Test B pre/postemergence corn; assay type: in vivo, Zea mays
Outline: as §1

crabgrass = assay: Test B pre/postemergence crabgrass; assay type: in vivo, Digitaria sanguinalis
Outline: as §1

giant foxtail = assay: Test B pre/postemergence giant foxtail; assay type: in vivo, Setaria faberii
Outline: as §1

morningglory = assay: Test B pre/postemergence morningglory; assay type: in vivo, Ipomoea hederacea
Outline: as §1

pigweed = assay: Test B pre/postemergence pigweed; assay type: in vivo, Amaranthus retroflexus
Outline: as §1

rape = assay: Test B pre/postemergence rape; assay type: in vivo, Brassica napus
Outline: as §1

soybean = assay: Test B pre/postemergence soybean; assay type: in vivo, Glycine max
Outline: as §1

sugar beet = assay: Test B pre/postemergence sugar beet; assay type: in vivo, Beta vulgaris
Outline: as §1

velvetleaf = assay: Test B pre/postemergence velvetleaf; assay type: in vivo, Abutilon theophrasti
Outline: as §1

wheat = assay: Test B pre/postemergence wheat; assay type: in vivo, Triticum aestivum
Outline: as §1

wild oat = assay: Test B pre/postemergence wild oat; assay type: in vivo, Avena fatua
Outline: as §1

purple nutsedge = assay: Test B pre/postemergence purple nutsedge; assay type: in vivo, Cyperus rotundus
Outline: as §1

rice = assay: Test B flood test rice; assay type: in vivo, Oryza sativa
Outline: (§2)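 Each value is a visual injury score relative to controls, with 10 meaning complete control and 0 no effect. Evaluation took place twelve to sixteen days after the 2-leaf-stage plants were treated and kept in the greenhouse.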

smallflower flatsedge = assay: Test B flood test smallflower flatsedge; assay type: in vivo, Cyperus difformis
Outline: as §2

duck salad = assay: Test B flood test duck salad; assay type: in vivo, Heteranthera limosa
Outline: as §2

bamyardgrass = assay: Test B flood test barnyardgrass; assay type: in vivo, Echinochloa crus-galli
Outline: as §2

[1] = Postemergence, Rate 250 g/ha, scale 0 to 10
[2] = Preemergence, Rate 62 g/ha, scale of 0 to 10 where 0 is no effect and 10 is complete control
[3] = Preemergence, Rate 125 g/ha, scale 0 to 10, 0 is no effect, 10 is complete control
[4] = Postemergence, Rate 125 g/ha, scale 0 to 10, 0 is no effect, 10 is complete control
[5] = Postemergence, Rate 500 g/ha, scale 0 to 10, 0 is no effect, 10 is complete control
[6] = Preemergence, Rate 250 g/ha, scale 0 to 10, 0 is no effect, 10 is complete control
[7] = Preemergence, Rate 500 g/ha, scale of 0 to 10 where 0 is no effect and 10 is complete control
[8] = Rate 62 g/ha, Postemergence, scale 0 to 10, 0 no effect, 10 complete control
[9] = Rate 62 g/ha, flood test species, Pre-emergence, visual evaluation after twelve to sixteen days
[10] = Rate 125 g/ha, under heading Pre-emergence, flood test species, visual evaluation after twelve to sixteen days
[11] = Rate 250 g/ha, Pre-emergence (flood test species), scale 0 to 10, 0 is no effect, 10 is complete control
[12] = Rate 500 g/ha, Pre-emergence section of Table B, 0 to 10 scale (0 no effect, 10 complete control)

CC(C)N(C(=O)n1oc(=O)n(CC2=CCCCC2)c1=O)c1ccccc1 [Compound 496]
Bedstraw plant response rating (bedstraw; [1]): 0
Plant response rating, Bedstraw (bedstraw; [2]): 0
Bedstraw plant response rating (bedstraw; [3]): 0
Blackgrass plant response rating (blackgrass; [4]): 3
Blackgrass plant response rating (blackgrass; [1]): 3
Plant response rating, Blackgrass (blackgrass; [5]): 5
Plant response rating, Blackgrass (blackgrass; [2]): 0
Blackgrass plant response rating (blackgrass; [3]): 0
Blackgrass plant response rating (blackgrass; [6]): 2
Blackgrass plant response rating (blackgrass; [7]): 2
Blackgrass plant response rating (blackgrass; [8]): 2
B. signalgrass plant response rating (surinam grass; [4]): 0
B. signalgrass plant response rating (surinam grass; Postemergence, Rate 250 g/ha, scale 0 to 10, 0 no effect, 10 complete control): 0
Plant response rating, B. signalgrass (surinam grass; [5]): 4
Plant response rating, B. signalgrass (surinam grass; [2]): 0
B. signalgrass plant response rating (surinam grass; [3]): 0
B. signalgrass plant response rating (surinam grass; [6]): 1
B. signalgrass plant response rating (surinam grass; Preemergence, Rate 500 g/ha, scale 0 to 10, 0 is no effect, 10 is complete control): 8
B. signalgrass plant response rating (surinam grass; [8]): 0
Cocklebur plant response rating (cocklebur; [4]): 0
Cocklebur plant response rating (cocklebur; [1]): 0
Plant response rating, Cocklebur (cocklebur; [5]): 1
Plant response rating, Cocklebur (cocklebur; [2]): 0
Cocklebur plant response rating (cocklebur; [3]): 0
Cocklebur plant response rating (cocklebur; [6]): 0
Cocklebur plant response rating (cocklebur; [7]): 0
Cocklebur plant response rating (cocklebur; [8]): 0
Corn plant response rating (corn; [4]): 0
Corn plant response rating (corn; [1]): 0
Plant response rating, Corn (corn; [5]): 0
Plant response rating, Corn (corn; [2]): 0
Corn plant response rating (corn; [3]): 0
Corn plant response rating (corn; [7]): 0
Corn plant response rating (corn; [8]): 0
Crabgrass plant response rating (crabgrass; [4]): 0
Crabgrass plant response rating (crabgrass; [1]): 0
Plant response rating, Crabgrass (crabgrass; [5]): 2
Plant response rating, Crabgrass (crabgrass; [2]): 0
Crabgrass plant response rating (crabgrass; [3]): 4
Crabgrass plant response rating (crabgrass; [7]): 9
Crabgrass plant response rating (crabgrass; [8]): 0
Giant foxtail plant response rating (giant foxtail; [4]): 0
Plant response rating, Giant foxtail (giant foxtail; [5]): 0
Plant response rating, Giant foxtail (giant foxtail; [2]): 2
Giant foxtail plant response rating (giant foxtail; [3]): 8
Giant foxtail plant response rating (giant foxtail; [7]): 9
Giant foxtail plant response rating (giant foxtail; [8]): 0
Morningglory plant response rating (morningglory; [4]): 8
Plant response rating, Morningglory (morningglory; [5]): 8
Plant response rating, Morningglory (morningglory; [2]): 0
Morningglory plant response rating (morningglory; [3]): 0
Morningglory plant response rating (morningglory; [7]): 0
Morningglory plant response rating (morningglory; [8]): 8
Redroot pigweed plant response rating (pigweed; [4]): 0
Plant response rating, Redroot pigweed (pigweed; [5]): 3
Plant response rating, Redroot pigweed (pigweed; [2]): 0
Redroot pigweed plant response rating (pigweed; [3]): 0
Redroot pigweed plant response rating (pigweed; [7]): 8
Redroot pigweed plant response rating (pigweed; [8]): 0
Rape plant response rating (rape; [4]): 0
Plant response rating, Rape (rape; [5]): 0
Plant response rating, Rape (rape; [2]): 0
Rape plant response rating (rape; [3]): 0
Rape plant response rating (rape; [7]): 0
Rape plant response rating (rape; [8]): 0
Soybean plant response rating (soybean; [4]): 3
Plant response rating, Soybean (soybean; [5]): 3
Plant response rating, Soybean (soybean; [2]): 0
Soybean plant response rating (soybean; [3]): 0
Soybean plant response rating (soybean; [7]): 0
Soybean plant response rating (soybean; [8]): 2
Sugarbeets plant response rating (sugar beet; [4]): 0
Plant response rating, Sugarbeets (sugar beet; [5]): 0
Plant response rating, Sugarbeets (sugar beet; [2]): 0
Sugarbeets plant response rating (sugar beet; [3]): 0
Sugarbeets plant response rating (sugar beet; [7]): 0
Sugarbeets plant response rating (sugar beet; [8]): 0
Velvetleaf plant response rating (velvetleaf; [4]): 0
Plant response rating, Velvetleaf (velvetleaf; [5]): 0
Plant response rating, Velvetleaf (velvetleaf; [2]): 0
Velvetleaf plant response rating (velvetleaf; [3]): 0
Velvetleaf plant response rating (velvetleaf; [7]): 0
Velvetleaf plant response rating (velvetleaf; [8]): 0
Wheat plant response rating (wheat; [4]): 0
Plant response rating, Wheat (wheat; [5]): 3
Plant response rating, Wheat (wheat; [2]): 0
Wheat plant response rating (wheat; [3]): 0
Wheat plant response rating (wheat; [7]): 0
Wheat plant response rating (wheat; [8]): 0
Wild oats plant response rating (wild oat; [4]): 0
Plant response rating, Wild oats (wild oat; [5]): 2
Plant response rating, Wild oats (wild oat; [2]): 0
Wild oats plant response rating (wild oat; [3]): 0
Wild oats plant response rating (wild oat; [7]): 0
Wild oats plant response rating (wild oat; [8]): 0
Nutsedge plant response rating (purple nutsedge; [4]): 0
Plant response rating, Nutsedge (purple nutsedge; [5]): 0
Plant response rating, Nutsedge (purple nutsedge; [2]): 0
Nutsedge plant response rating (purple nutsedge; [3]): 0
Nutsedge plant response rating (purple nutsedge; [7]): 0
Nutsedge plant response rating (purple nutsedge; [8]): 0
Plant response rating, Rice (0 to 10 scale, 0 is no effect, 10 is complete control) (rice; [9]): 0
Rice plant response rating (0 to 10 scale, 0 is no effect, 10 is complete control) (rice; [10]): 0
Rice plant response rating (rice; [11]): 0
Rice plant response rating (rice; [12]): 0
Plant response rating, S. Flatsedge (0 to 10 scale, 0 is no effect, 10 is complete control) (smallflower flatsedge; [9]): 0
S. Flatsedge plant response rating (0 to 10 scale, 0 is no effect, 10 is complete control) (smallflower flatsedge; [10]): 0
S. Flatsedge plant response rating (smallflower flatsedge; [11]): 0
S. Flatsedge plant response rating (smallflower flatsedge; [12]): 0
Plant response rating, Ducksalad (0 to 10 scale, 0 is no effect, 10 is complete control) (duck salad; [9]): 0
Ducksalad plant response rating (0 to 10 scale, 0 is no effect, 10 is complete control) (duck salad; [10]): 0
Ducksalad plant response rating (duck salad; [11]): 0
Ducksalad plant response rating (duck salad; [12]): 0
Plant response rating, Barnyardgrass (0 to 10 scale, 0 is no effect, 10 is complete control) (bamyardgrass; [9]): 0
Barnyardgrass plant response rating (0 to 10 scale, 0 is no effect, 10 is complete control) (bamyardgrass; [10]): 0
Barnyardgrass plant response rating (bamyardgrass; [11]): 0
Barnyardgrass plant response rating (bamyardgrass; [12]): 0
